In patent publication US8722877B2, “7-deazapurine modulators of histone methyltransferase, and methods of use thereof” (Epizyme, Inc., priority 2010, dated 2014):
Where a name gives a salt, the structure may show the parent alone. Read-outs that look alike come from different tables or passages of the source.

Legend:
MEIS1 = MEIS1 transcript levels by quantitative real-time PCR; conditions: for IC50: read-out: decrease of MEIS1 transcript, IC50
HOXA9 = HOXA9 transcript levels by quantitative real-time PCR; conditions: for IC50: read-out: decrease of HOXA9 transcript, IC50
[1] = system: non-MLL rearranged human leukemia cell lines; experiment: Proliferation IC50 in panel of non-MLL-rearranged leukemia cell lines; format: cell-based; conditions: six non-MLL rearranged cell lines (FIG. 6), read-out: IC50 for inhibition of proliferation
H3K79me2 in MV4-11 cells = experiment: Cellular histone methylation immunoblot in MV4-11 cells
MV4-11 cells [2] = experiment: Proliferation assay, MV4-11 cells; format: cell-based, human; conditions: 3 μM, several days
[3] = system: MLL-rearranged human leukemia cell lines; experiment: Proliferation IC50 in panel of MLL-rearranged leukemia cell lines; format: cell-based; conditions: six MLL-rearranged cell lines (FIG. 6)
TBP = experiment: Housekeeping gene TBP transcript levels
CD14 = experiment: Cell surface expression of differentiation marker CD14 by flow cytometry, MOLM-13 cells; conditions: 3 μM
Jurkat cells = experiment: Proliferation assay, Jurkat cells; format: cell-based, human; conditions: 3 μM, several days
DOT1L(1-416) = DOT1L(1-416) (Homo sapiens (Human), UniProt Q8TEK3); experiment: Determination of IC50, DOT1L biochemical assay
Sequence of DOT1L(1-416) (Q8TEK3 1-416): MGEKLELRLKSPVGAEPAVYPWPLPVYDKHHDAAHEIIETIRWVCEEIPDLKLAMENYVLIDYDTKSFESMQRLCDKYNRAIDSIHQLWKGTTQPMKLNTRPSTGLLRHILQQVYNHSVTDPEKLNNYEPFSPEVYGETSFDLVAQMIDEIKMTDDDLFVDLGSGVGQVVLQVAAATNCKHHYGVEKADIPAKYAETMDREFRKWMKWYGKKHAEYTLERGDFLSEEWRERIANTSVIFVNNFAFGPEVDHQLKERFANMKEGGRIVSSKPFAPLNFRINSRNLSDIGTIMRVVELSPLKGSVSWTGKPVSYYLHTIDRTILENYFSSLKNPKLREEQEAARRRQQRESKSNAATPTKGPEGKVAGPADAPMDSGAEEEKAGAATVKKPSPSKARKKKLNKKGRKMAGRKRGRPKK

MOLM-13 cells = experiment: Cell growth and viability / proliferation, MOLM-13 cells; format: cell-based, human
H3K79me2 in Jurkat cells = experiment: Cellular H3K79me2 immunoblot in Jurkat cells; conditions: Jurkat (non-MLL-rearranged)
[4] = system: H3K79 methylation in MOLM-13 cells; experiment: Cellular H3K79 methylation analysis (histone immunoblot) in MOLM-13 cells; format: cell-based, human
MV4-11 cells [5] = experiment: Cell cycle and apoptosis by flow cytometry (DNA content, Annexin V), MV4-11 cells; conditions: 3 μM, after day four over the next six days
[6] = MV4-11 cells, 3 μM, time course

`CC(C)N(CCCNC(=O)Nc1ccc(C(C)(C)C)cc1)C[C@H]1O[C@@H](n2ccc3c(N)ncnc32)[C@H](O)[C@@H]1O` [Compound 16, 1-(3-((((2R,3S,4R,5R)-5-(4-amino-7H-pyrrolo[2,3-d]pyrimidin-7-yl)-3,4-dihydroxytetrahydrofuran-2-yl)methyl)(isopropyl)amino)propyl)-3-(4-(tert-butyl)phenyl)urea] was tested, and the “estimated half-life for MEIS1 inhibition” value (MEIS1; 3 μM, mRNA over time) was 79.2 h, the IC50 (MEIS1; MOLM-13 cells) was about 700 nM and the IC50 (MEIS1; MV4-11 cells) was about 700 nM. The “estimated half-life for HOXA9 inhibition” value (HOXA9; 3 μM, mRNA over time) was 55.2 h, the IC50 (HOXA9; MOLM-13 cells) was about 700 nM and the IC50 (HOXA9; MV4-11 cells) was about 700 nM. The IC50 [1] was over 10000 nM, the “global H3K79me2 levels” value (H3K79me2 in MV4-11 cells; MV4-11 (MLL-AF4), immunoblot) was “concentration dependent reduction” and the “methyl marks affected (panel of methyl-lysine and methyl-arginine specific antibodies)” value (H3K79me2 in MV4-11 cells; MV4-11 cells) was “only methyl marks affected by compound 16 treatment were H3K79me1 and H3K79me2”. For the same molecule, the “H3K79me2 levels within one day of treatment” value (H3K79me2 in MV4-11 cells; [6]) was “modest reduction”, the “time to full depletion of H3K79me2” value (H3K79me2 in MV4-11 cells; [6]) was “four to five” and the “number of viable cells” value (MV4-11 cells [2]) was “dramatically reduced”. For the same molecule, the “IC50 for inhibition of proliferation” value [3] was “nanomolar to low micromolar range”, the “transcript levels of the housekeeping gene TBP” value (TBP) was “unaffected” and the “expression of CD14” value (CD14) was “induced following 12 days”. For the same molecule, the growth of cells (Jurkat cells) was “unaffected”, the “mode of binding to the enzyme (steady state kinetic analysis)” value (DOT1L(1-416); versus SAM) was “binds to the enzyme competitively with SAM” and the “number of viable cells” value (MOLM-13 cells; MOLM-13 cells, 3 μM, several days) was “dramatically reduced”. The “global H3K79me2 levels” value (H3K79me2 in Jurkat cells) was “concentration dependent reduction”, the “global H3K79me2 levels” value ([4]; MOLM-13 (MLL-AF9), immunoblot) was “concentration dependent reduction” and the “cell cycle and apoptosis” value (MV4-11 cells [5]) was “increase in sub-G1 and Annexin-positive cells”.
For `CC(C)(C)c1ccc(NC(=O)NCCCNC[C@H]2O[C@@H](n3ccc4c(N)ncnc43)[C@H](O)[C@@H]2O)cc1` [Compound 20], the IC50 (DOT1L(1-416)) was under 1000 nM.
Molecule `CC(C)N(CCCCc1nc2cc(C(C)(C)C)ccc2[nH]1)C[C@H]1O[C@@H](n2ccc3c(N)ncnc32)[C@H](O)[C@@H]1O` [Compound 18, (2R,3R,4S,5R)-2-(4-amino-7H-pyrrolo[2,3-d]pyrimidin-7-yl)-5-(((4-(5-(tert-butyl)-1H-benzo[d]imidazol-2-yl)butyl)(isopropyl)amino)methyl)tetrahydrofuran-3,4-diol] has an IC50 (DOT1L(1-416)) of under 10 nM.
Work on `CC(C)N(CCCNC(=O)Nc1ccc(C(C)(C)C)cc1)C[C@H]1O[C@@H](n2ccc3c(N)ncnc32)[C@H](O)[C@@H]1O` [Compound 17, 1-(3-((((2R,3S,4R,5R)-5-(4-amino-7H-pyrrolo[2,3-d]pyrimidin-7-yl)-3,4-dihydroxytetrahydrofuran-2-yl)methyl)(isopropyl)amino)propyl)-3-(4-(tert-butyl)phenyl)urea hydrochloride] yielded an IC50 (MOLM-13 cells; Homo sapiens, MOLM-13, read-out: Proliferation IC50 MOLM-13 cells) of 3200 nM and an IC50 ([4]; Homo sapiens, MOLM-13, read-out: H3K79 IC50 MOLM-13 cells) of 59 nM.
For `CN(CCCNC(=O)Nc1ccc(C(C)(C)C)cc1)CC1O[C@@H](n2ccc3c(N)ncnc32)[C@H](O)[C@@H]1O` (stereo partly shown) [Compound 9, hydrochloride], the IC50 (MOLM-13 cells; MOLM-13 cells, read-out: Proliferation IC50 MOLM-13 cells) was 17300 nM and the IC50 ([4]; MOLM-13 cells, read-out: H3K79 IC50 MOLM-13 cells) was 77 nM.
`CC(=O)N(CCCNC(=O)Nc1ccc(C(C)(C)C)cc1)C[C@H]1O[C@@H](n2ccc3c(N)ncnc32)[C@H](O)[C@@H]1O` [Compound 21] showed an IC50 (DOT1L(1-416)) of under 1000 nM.
